Source: ChEMBL document CHEMBL1201862, “PubChem BioAssay data set” (2004)
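48-hour exposure; five concentrations; linearly interpolated endpoints. Abbreviation: GI50, concentration required for 50% inhibition of growth.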 Calls of active or inactive are those of the source. Cut-off read from the data, not from the text of the source: active = GI50 up to about 1.1 µM and inactive = higher.

Columns and labels:
Test in all cases: NCI anticancer screen, dose series, 48 h
A498 = test system: A498
A549 = test system: A549
CAKI-1 = test system: CAKI-1
DU-145 = test system: DU-145
EKVX = test system: EKVX
HOP-92 = test system: HOP-92
HT-29 = test system: HT-29
IGROV-1 = test system: IGROV-1
K562 = test system: K562
LOX IMVI = test system: LOX IMVI
MCF7 = test system: MCF7
MDA-MB-231 = test system: MDA-MB-231
NCI-H522 = test system: NCI-H522
NCI/ADR-RES = test system: NCI/ADR-RES
RXF 393 = test system: RXF 393
SF-268 = test system: SF-268
SF-295 = test system: SF-295
SN12C = test system: SN12C
SNB-75 = test system: SNB-75
HL-60 = test system: HL-60

Measured: GI50

CC(C)OC(=O)[C@@H]1OC(C)(C)O[C@H]1C(=O)OC(C)C
inactive: A498 > 100 µM | A549 > 100 µM | CAKI-1 > 100 µM | DU-145 > 100 µM | EKVX > 100 µM | HOP-92 > 100 µM | HT-29 > 100 µM | IGROV-1 > 100 µM | K562 > 100 µM | LOX IMVI > 100 µM | MCF7 > 100 µM | MDA-MB-231 > 100 µM | NCI-H522 > 100 µM | NCI/ADR-RES > 100 µM | RXF 393 > 100 µM | SF-268 > 100 µM | SF-295 > 100 µM | SN12C > 100 µM | SNB-75 > 100 µM

CCn1c(=O)c2c3ccc(O)cc3oc2c2ccc(O)cc21
inactive: A498 25.4 µM | A549 41.1 µM | CAKI-1 39.4 µM | DU-145 47.8 µM | EKVX 3.55 µM | HOP-92 57.9 µM | HT-29 48.1 µM | IGROV-1 40.4 µM | K562 40.6 µM | MCF7 39.2 µM | MDA-MB-231 30.2 µM | NCI-H522 40.1 µM | NCI/ADR-RES 53.3 µM | RXF 393 53.7 µM | SF-268 36.9 µM | SF-295 52.4 µM | SN12C 41.5 µM | SNB-75 29.9 µM

COc1ccc2[nH]c3c(C)c4ncccc4c(C)c3c2c1
inactive: A549 2.18 µM | CAKI-1 > 10 µM | DU-145 7.55 µM | EKVX 4.97 µM | HL-60 3.01 µM | HOP-92 8.34 µM | HT-29 2.22 µM | IGROV-1 > 10 µM | K562 3.68 µM | MCF7 2.02 µM | MDA-MB-231 > 10 µM | NCI-H522 > 10 µM | NCI/ADR-RES 3.12 µM | RXF 393 3.59 µM | SF-268 > 10 µM | SF-295 2.43 µM | SN12C 4.78 µM | SNB-75 9.91 µM

O=C(O)Cc1cccnc1
inactive: A498 > 100 µM | A549 > 100 µM | CAKI-1 > 100 µM | DU-145 > 100 µM | EKVX > 100 µM | HOP-92 > 100 µM | HT-29 > 100 µM | IGROV-1 > 100 µM | K562 > 100 µM | LOX IMVI > 100 µM | MCF7 > 100 µM | MDA-MB-231 > 100 µM | NCI-H522 > 100 µM | NCI/ADR-RES > 100 µM | RXF 393 > 100 µM | SF-268 > 100 µM | SF-295 > 100 µM | SN12C > 100 µM | SNB-75 > 100 µM

Nc1ncnc2c1ncn2[C@@H]1C[C@H](NO)[C@@H](O)[C@H]1O
inactive: A498 > 100 µM | A549 > 100 µM | DU-145 > 100 µM | EKVX > 100 µM | HOP-92 > 100 µM | IGROV-1 > 100 µM | K562 28.1 µM | LOX IMVI 13.1 µM | MCF7 49.3 µM | MDA-MB-231 > 100 µM | NCI-H522 > 100 µM | NCI/ADR-RES 68.5 µM | RXF 393 > 100 µM | SF-268 > 100 µM | SF-295 > 100 µM | SN12C > 100 µM | SNB-75 > 100 µM

O=C1C2=Cc3ccccc3OC2(O)Oc2cc(O)ccc21 (stereo unspecified)
inactive: A498 > 100 µM | A549 > 100 µM | CAKI-1 > 100 µM | DU-145 > 100 µM | EKVX > 100 µM | HOP-92 > 100 µM | HT-29 > 100 µM | IGROV-1 > 100 µM | K562 > 100 µM | LOX IMVI > 100 µM | MCF7 > 100 µM | MDA-MB-231 > 100 µM | NCI/ADR-RES > 100 µM | RXF 393 > 100 µM | SF-268 > 100 µM | SF-295 > 100 µM | SN12C > 100 µM | SNB-75 > 100 µM

CCn1c(-c2ccc(OC)cc2)nc2c1C(=O)c1ccccc1C2=O
inactive: A549 > 100 µM | DU-145 > 100 µM | EKVX > 100 µM | HL-60 > 100 µM | HOP-92 > 100 µM | HT-29 > 100 µM | IGROV-1 > 100 µM | K562 > 100 µM | MCF7 > 100 µM | MDA-MB-231 > 100 µM | NCI-H522 > 100 µM | NCI/ADR-RES > 100 µM | RXF 393 > 100 µM | SF-268 > 100 µM | SF-295 > 100 µM | SN12C > 100 µM | SNB-75 > 100 µM

COc1ccc2c(Cl)cc(NC(=S)Nc3ccccc3)nc2c1
inactive: A498 21.1 µM | A549 29.5 µM | CAKI-1 35.6 µM | DU-145 35.7 µM | EKVX 22 µM | HOP-92 21.8 µM | HT-29 22.4 µM | IGROV-1 20.8 µM | K562 23.4 µM | LOX IMVI 21.1 µM | MCF7 25.8 µM | MDA-MB-231 26.4 µM | NCI-H522 13.2 µM | NCI/ADR-RES 22.3 µM | RXF 393 20.2 µM | SF-268 24.8 µM | SF-295 31.6 µM | SN12C 33.3 µM | SNB-75 23.6 µM

CCN1C(=O)c2ccccc2C1(O)c1ccc(Cl)cc1 (stereo unspecified)
inactive: A498 > 100 µM | A549 25 µM | CAKI-1 > 100 µM | DU-145 80.2 µM | EKVX 33.3 µM | HL-60 30 µM | HOP-92 > 100 µM | HT-29 41.9 µM | IGROV-1 29.1 µM | K562 > 100 µM | LOX IMVI 51.4 µM | MCF7 47.6 µM | MDA-MB-231 > 100 µM | NCI/ADR-RES 16.5 µM | SF-268 79.8 µM | SF-295 18.4 µM | SN12C > 100 µM | SNB-75 > 10 µM

O=C(/C=C/c1ccc(O)c(O)c1)NC(COC(=O)/C=C/c1ccc(O)c(O)c1)C(=O)O (stereo unspecified)
inactive: A498 > 100 µM | A549 > 100 µM | CAKI-1 > 100 µM | DU-145 > 100 µM | EKVX > 100 µM | HOP-92 > 100 µM | HT-29 > 100 µM | IGROV-1 > 100 µM | K562 > 100 µM | LOX IMVI > 100 µM | MCF7 > 100 µM | MDA-MB-231 > 100 µM | NCI-H522 > 100 µM | NCI/ADR-RES > 100 µM | RXF 393 > 100 µM | SF-268 > 100 µM | SF-295 > 100 µM | SN12C > 100 µM | SNB-75 > 100 µM

Cc1cc(=O)oc2c(CNC(C(=O)O)C(C)O)c(O)ccc12 (stereo unspecified)
inactive: A549 > 100 µM | CAKI-1 > 100 µM | DU-145 > 100 µM | EKVX > 100 µM | HL-60 > 100 µM | HOP-92 > 100 µM | HT-29 > 100 µM | IGROV-1 > 100 µM | K562 > 100 µM | LOX IMVI > 100 µM | MCF7 > 100 µM | MDA-MB-231 > 100 µM | NCI-H522 > 100 µM | NCI/ADR-RES > 100 µM | RXF 393 > 100 µM | SF-268 > 100 µM | SF-295 > 100 µM | SN12C > 100 µM | SNB-75 8.89 µM
